Patent publication US20220354855A1, “TREATMENT FOR GASTROINTESTINAL DISORDERS” (Mayo Foundation for Medical Education and Research, priority 2019, published 2022)

Tests used:
[1] = system: proximal colon mucosa submucosa preparations from germ free mice; assay: Ussing chamber short circuit current (Isc) in response to CDCA, colon mucosa-submucosa preparations; settings: CDCA applied basolaterally, n=3, Wilcoxon, FIG. 4E
Excerpt: FIGS. 4A-4E: An integrated metabolomics approach provides mechanistic insight into the effect of gut microbiota metabolism on host physiology. FIG. 4A is a series of graphs plotting the abundance of propionate (left), butyrate (center), and acetate (right) as determined by ^1H NMR using stool samples from healthy, IBS-C, and IBS-D subjects (averaged data per subject, pairwise Mann-Whitney tests). FIG. 4B is a pair of graphs plotting the abundance of tryptophan (left) and tryptamine (right) as determined by LC-MS in stool samples from healthy, IBS-C, and IBS-D subjects (averaged data per subject, pairwise Mann-Whitney tests). FIG. 4C is a series of graphs plotting the abundance of cholic acid (CA, left panel), chenodeoxycholic acid (CDCA, center panel), and deoxycholic acid sulfate (DCA-S, right panel) as determined by ^1H NMR with stool samples from healthy, IBS-C, and IBS-D subjects (mixed linear models correcting for subject). FIG. 4D is a series of graphs plotting the abundance of CA, CDCA, and DCA-S as determined by ^1H NMR using stool samples from healthy, IBS-C, and IBS-D subjects (averaged data per subject, pairwise Mann-Whitney tests). […]
Ussing chamber experiments: Colonic mucosal secretory responses were assessed using Ussing chamber setups. […]

[2] = system: colonic biopsies from healthy, IBS-C, and IBS-D subjects; assay: Ussing chamber short circuit current (ΔIsc) in response to serotonin (5-HT), colonic biopsies; design: species or system human; settings: cumulative concentrations of 5-HT applied basolaterally; biopsies from IBS-C patients versus HC; FIG. 3C
Excerpt: FIGS. 3A-3F: Integrated top-down bottom-up approach provides mechanistic insight into the effect of gut microbiota metabolism on host physiology. FIG. 3A is a series of graphs plotting the abundance of propionate (left), butyrate (center), and acetate (right) as determined by ^1H NMR. The data are shown as mixed linear models correcting for subject in stool samples from healthy, IBS-C, and IBS-D subjects. FIG. 3B is a graph plotting the abundance of acetate in colonic biopsies. FIG. 3C is a graph plotting maximal ΔIsc (Imax) following application of cumulative concentrations of serotonin (5-HT) basolaterally in colonic biopsies from healthy, IBS-C, and IBS-D subjects. FIG. 3D is a graph plotting baseline Isc observed in colonic biopsies from healthy, IBS-C, and IBS-D subjects (P-values are Tukey HSD adjusted from a linear model). FIG. 3E is a pair of graphs plotting the abundance of tryptophan (left) and tryptamine (right) in stool samples from healthy, IBS-C, and IBS-D subjects. […]
Ussing chamber experiments: Colonic mucosal secretory responses were assessed using Ussing chamber setups. […] Short circuit current (Isc) was continuously recorded using Acquire and Analyze software (Physiologic Instruments). ΔIsc values were calculated using Isc measurements before and after application of compounds to the basolateral side and normalized to the tissue area. […]

SMILES	Isc in response to CDCA (ΔIsc, Imax) [1]	secretory response (maximal ΔIsc, Imax) to serotonin (5-HT) [2]
C[C@H](CCC(=O)O)[C@H]1CC[C@H]2[C@@H]3[C@H](O)C[C@@H]4C[C@H](O)CC[C@]4(C)[C@H]3CC[C@]12C [CDCA, chenodeoxycholic acid]	significant increase in Isc	–
NCCc1c[nH]c2ccc(O)cc12 [serotonin (5-HT), serotonin]	–	significantly lower than HC
